Marks after values point to notes of the source that are not given here.
Legend:
[1] = system: mouse myoblast C2C12 cells; conditions: cited from earlier work
[2] = DPPH radical scavenging activity (TAC assay); type: biochemical; conditions: ethanol, absorbance 515 nm
Excerpt: (§1) In an embodiment, the AntiOxCINs antioxidant ranking activity hierarchy was established by in vitro non-cell methods. The selected total antioxidant capacity (TAC) assays (DPPH, ABTS and GO) involved the spectrophotometric measurement of the radical absorbance decrease as a result of an in situ radical deactivation by an antioxidant. Compounds with higher antioxidant activity display lower IC50 values. […] This decrease was attenuated/ameliorated by the increment of the spacer length and/or the introduction of additional hydroxyl group in the aromatic ring.
(§2) The radical scavenging activity of AntiOxCINs was evaluated by means of total antioxidant capacity assays based on DPPH., ABTS.^+ and GO. radicals. All these methods involved the spectrophotometric measurement of the absorbance decrease resulting from radical (DPPH., ABTS.^+ or GO.) deactivation with an antioxidant. The results were expressed in IC50, which is defined as the minimum antioxidant concentration necessary to reduce the amount of radical by 50%. Antioxidant assays were performed in a multiplate reader (Powerwave XS Microplate Reader) of Bio-Tech instruments.
In an embodiment, the DPPH. radical scavenging activity was performed as follows: solutions of the test compounds with increasing concentrations (range between 0 μM and 500 μM) were prepared in ethanol. A DPPH′ ethanolic solution (6.85 mM) was also prepared and then diluted to reach the absorbance of 0.72±0.02 at 515 nm. Each compound solution (20 μL) was added to 180 μL of DPPH′ solution in triplicate, and the absorbance at 515 nm was recorded minutely over 45 minutes. […] Dose-response curves were established for the determination of IC50 values. Data are means±SEM of three independent experiments.

[3] = ABTS radical cation scavenging activity (TAC assay); type: biochemical; conditions: ethanol
Excerpt: as §1, §2
In an embodiment, the ABTS.^+ scavenging activity was evaluated as follows: ethanolic solutions of the test compounds with increasing concentrations (range between 10 μM and 500 μM) were prepared. ABTS.^+ radical cation solution was obtained by addition of 150 mM aqueous potassium persulfate solution (163 μL) to 10 mL of 7 mM aqueous ABTS solution followed by storage in the dark at room temperature for 16 h (2.45 mM final concentration). The solution was then diluted in ethanol to reach the absorbance of 0.72±0.02. After addition of the compound (20 μL), in triplicate, to ABTS.^+ solution (180 μL) the spectrophotometric measurement was carried out each minute over 15 minutes. […] Dose-response curves were established for the determination of IC50 values. Data are means±SEM of three independent experiments.

[4] = Lipophilic properties by electrochemistry at ITIES (transfer potential); type: physicochemical; conditions: aqueous phase to 1,6-dichlorohexane, DPV, C=0.32 mM
Experimental: In an embodiment, AntiOxCINs lipophilic properties were evaluated at physiological pH by electrochemistry. The used technique is often used to mimic the transfer of ionic drugs through biological membranes as the process occurs at the interface between two immiscible electrolyte solutions (ITIES). The transfer potential (Etr) at which the ionic drug, initially present in the aqueous phase (C=0.32 mM), is transferred to the 1,6-dichlorohexane (DCH) phase is measured by differential pulse voltammetry (DPV). In the ITIES model, the transfer potential (Etr) becomes less positive with the increasing of the drug lipophilic character.
(§3) In an embodiment, the electrochemical analytical data was obtained using a computer controlled potentiostat Autolab PGSTAT302N (Metrohm Autolab, Utrecht, Netherlands). Generally, cyclic voltammetry (CV) data was acquired at a scan rate of 50 mVs^−1. Differential pulse voltammetry (DPV) results were acquired at a step potential of 4 mV, pulse amplitude of 50 mV and scan rate of 8 mVs^−1. The electrochemical signals were monitored by the General Purpose Electrochemical System (GPES) version 4.9, software package. All electrochemical experiments were performed at room temperature in an electrochemical cell that was placed in a Faraday cage in order to minimize the contribution of background noise to the analytical signal.
(§4) In an embodiment, the process of evaluation of AntiOxCINs redox properties was conducted as follows: stock solutions of each compound (10 mM) were prepared by dissolving the appropriate amount in ethanol. The voltammetric working solutions were prepared in the electrochemical cell, at a final concentration of 0.1 mM. The […] supporting electrolyte was prepared by diluting […] to 100 mL. Voltammetric data was acquired in a three-electrode system consisting of a glassy carbon electrode (GCE, d=2 mm) as working electrode, a counter electrode of platinum wire and a saturated Ag/AgCl reference electrode. In an embodiment, the evaluation of AntiOxCINs lipophilic properties was performed as follows: the electrochemical cell was a four-electrode system with arrays of micro liquid-liquid interfaces (μlTIES) containing two Ag/AgCl reference electrodes and two counter electrodes of Pt, one in each phase. The microporous membrane was sealed with a fluorosilicone sealant (Dow Corning 730) onto a glass cylinder which was filled with 4.0 mL of the aqueous phase, where the aliquots of AntiOxCINs solutions were added. The membrane was then immersed into the organic phase contained in the cell. The organic phase reference solution (a 2 mM BTPPACI+2 mM NaCl aqueous solution) was mechanically stabilized The aqueous supporting electrolyte solution was a Tris-HCl buffer 10 mM pH 7.0.

[5] = Redox properties by differential pulse and cyclic voltammetry; type: physicochemical
Experimental: In an embodiment, and as an example, AntiOxCINs redox properties were evaluated (Table 1). Redox potentials are correlated with the ability of an antioxidant to donate a hydrogen atom and/or an electron to a free radical.
However, for pyrogallol derivatives (AntiOxCIN4, AntiOxCIN5 and AntiOxCIN7), a significant decrease in redox potentials was observed (Ep=0.034-0.057 V) (Table 1).
The voltammograms presented a diffusion peak and an adsorption post-peak at a more anodic potential correspondent to the oxidation of dissolved and adsorbed forms of the compounds, respectively. The oxidation waves can be related to the oxidation process of the pyrogallol moiety. The cyclic voltammograms also show the presence of two overlapped anodic peaks. The anodic peaks appeared to correspond to irreversible processes as any distinct reduction wave was not seen on the cathodic sweep. The existence of the additional phenolic group in the pyrogallol systems, when compared with the catechol ones, seems to influence the stabilization of the semiquinone intermediate and in turn the oxidative mechanism.
as §3, §4

[6] = GO radical scavenging activity (TAC assay); type: biochemical; conditions: ethanol, absorbance 428 nm
Excerpt: as §1, §2
In an embodiment, the GO′ scavenging activity was evaluated as follows: solutions of test compounds with concentrations from 5 μM to 75 μM were prepared in ethanol. An ethanolic solution of 5 mM GO′ was prepared and diluted to reach the absorbance of 1.00±0.02 at 428 nm. The addition (20 μL) in triplicate of compound solution to GO. solution (180 μL) was followed by absorbance measurement at 428 nm over 30 minutes, in the dark, at room temperature. […] Dose-response curves were established for the determination of IC50 values. Data are means±SEM of three independent experiments.

Q: With `CS(=O)(=O)[O-].O=C(/C=C/c1ccc(O)c(O)c1)NCC[P+](c1ccccc1)(c1ccccc1)c1ccccc1` [AntiOxCIN1, reference compound] as the compound, how does the “protection against oxidative stress stressors (H2O2, linoleic acid-hydroperoxides)” value [1] read?
A: protected

Q: What about the IC50 [2] of the same compound?
A: 35.4 µM

Q: And the IC50 [3]?
A: 33.3 µM

Q: And the “Etr (transfer potential)” value [4]?
A: 0.572 V

Q: And the “reversibility of the oxidation reaction” value ([5]; cyclic voltammetry, physiological pH)?
A: reversible reaction

Q: And the “Ep (redox potential)” value ([5]; physiological pH (7.4), voltammetry, listed as AntiOxClN1)?
A: 0.166^a) V

Q: And the IC50 [6]?
A: 4.5 µM

From US10913757B2, “Hydroxycinnamic derivatives, methods and uses thereof” (UNIVERSIDADE DO PORTO, priority 2016, dated 2021)
